Data as given in US12702148B2, “Acetylcholinesterase inhibitor” (Taiko Pharmaceutical Co., Ltd., priority 2019, dated 2026).
pIC50: −log10 of the molar value. Where two headings read alike, the source gives them in different places.

Experiments:
[1] = target: T1, Acetylcholinesterase from Electrophorus electricus (electric eel) Type VI-S (Electrophorus electricus, UniProt O42275); experiment: biochemical
T1 construct: purchased Sigma-Aldrich C3389-500UN
Experimental: 2. Reagents 2.1 AchE Enzyme • Name: Acetylcholinesterase from Electrophorus electricus (electric eel) Type VI-S • Serial number: C3389-500UN • Obtained from: Sigma-Aldrich • Storage condition: Frozen (−20° C.) 2.2 AchE Activity Measurement Kit • Name: Acetylcholinesterase Activity Assay Kit • Serial number: MAK119 • Obtained from: Sigma-Aldrich • Storage condition: Room temperature 2.3 Solvent • Name: UltraPure 1M Tris-HCL pH 7.5 • Serial number: 15567-027 • Obtained from: Invitrogen • Storage condition: Refrigerated (4° C.) 2.4 Water
AchE enzyme (lyophilized powder) 2 mg (500 units) was dissolved in 2 mL of Tris-HCL Buffer pH 7.5 prepared to a concentration of 20 mM. This was then further diluted 30-folds with ultrapure water to prepare to a concentration of 33.3 μg/mL.
Two mg of the reagent included in the AchE activity measurement kit was weighed, dissolved in 200 mL of the assay buffer, and the working solution was obtained.
Measurement was carried out according to the following order. • 1) AchE enzyme solution (33.3 μg/mL) is mixed with test substance 1 solution (5 mg/mL) and ultrapure water according to the following Table 1.
(§1) • 2) The mixture is allowed to react in a thermobath at 37° C. for 10 minutes. • 3) 200 μL each of ultrapure water is added to 4 wells (n=4) of a 96-well microplate (blank wells.) • 4) 200 μL each of the calibrator included in the AchE activity measurement kit is added to 4 wells (n=4) different from those in Procedure 3) (calibrator wells.) • 5) 190 μL each of the working solution is added to yet another 24 wells (6 samples×4) (sample wells.) • 6) To the wells with the working solution added, 10μ each of post-reaction solutions No. 1-6 obtained in Procedure 2) is added to 4 wells (n=4) each. • 7) The plates are lightly tapped to allow mixing, reacted for 2 minutes at room temperature, and then absorbance at 412 nm is read with a microplate reader. • 8) This is allowed to react for another 8 minutes at room temperature (a total of 10 minutes), and then the absorbance at 412 nm is measured.
Measurement was carried out according to the following order. • 1) AchE enzyme solution (33.3 μg/mL) is mixed with test substance 2 solution (800 μg/mL) and ultrapure water according to the following Table 2.
as §1, with “measured. 6. Data Processing” for “measured.”
Employing the absorbance values obtained, the AchE activity (units/mL) was calculated by the formula below, and the average value and standard deviation of the AchE activity (units/mL) for each test substance at each concentration was calculated.
[formula] • (A412) final: Absorbance value at 412 nm after 10 minutes of reaction • (A412) initial Absorbance value at 412 nm after 2 minutes of reaction • n: Dilution coefficient (n=120) 0.2: Coefficient by Calibrator
Moreover, employing the AchE activity for the test substance at each concentration, One phase exponential decay curve was obtained by GraphPad Prism, and the IC50 value (mg/mL) was calculated.

[2] = target: T1, Acetylcholinesterase from Electrophorus electricus (electric eel) Type VI-S; assay type: biochemical; settings: n=3, average value

T1 sequence (O42275 24-633): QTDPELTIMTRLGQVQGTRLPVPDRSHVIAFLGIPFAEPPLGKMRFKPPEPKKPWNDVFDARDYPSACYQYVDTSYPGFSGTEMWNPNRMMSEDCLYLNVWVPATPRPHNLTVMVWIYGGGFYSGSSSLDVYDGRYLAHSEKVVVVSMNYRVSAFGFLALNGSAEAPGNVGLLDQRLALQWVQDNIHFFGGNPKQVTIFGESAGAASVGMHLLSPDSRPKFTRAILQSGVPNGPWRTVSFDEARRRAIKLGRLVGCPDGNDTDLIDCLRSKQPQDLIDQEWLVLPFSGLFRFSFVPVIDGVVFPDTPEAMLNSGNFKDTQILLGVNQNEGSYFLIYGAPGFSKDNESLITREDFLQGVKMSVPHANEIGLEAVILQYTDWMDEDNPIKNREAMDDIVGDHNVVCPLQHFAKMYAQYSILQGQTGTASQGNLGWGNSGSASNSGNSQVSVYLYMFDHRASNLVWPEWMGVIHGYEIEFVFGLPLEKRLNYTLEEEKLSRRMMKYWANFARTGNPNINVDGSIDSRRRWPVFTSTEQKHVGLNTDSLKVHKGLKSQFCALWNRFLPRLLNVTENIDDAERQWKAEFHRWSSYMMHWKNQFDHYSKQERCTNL

`COc1ccccc1O` [GUA, Guaiacol] was tested, and the IC50 ([1]; nonlinear regression curve of AchE activity at each concentration (GraphPad Prism), read-out: IC50 value (converted)) was 137 mM, the inhibition at 200 µM ([1]; read-out: Inhibitory rate) was 3% and the inhibition at 700 µM ([1]; read-out: Inhibitory rate) was 3.9%. It also gave an inhibition at 2000 µM ([1]; read-out: Inhibitory rate) of 2.2%, an inhibition at 7000 µM ([1]; read-out: Inhibitory rate) of 19.9% and an inhibition at 20000 µM ([1]; read-out: Inhibitory rate) of 58.8%. It also gave a pIC50 ([1]; regression curve by GraphPad Prism, Example 2, read-out: IC50) of 1.77, an AchE activity ([2]; GUA concentration 0.2 mM) of 24.89 units/mL and an AchE activity ([2]; GUA concentration 0.7 mM) of 24.64 units/mL. It also gave an AchE activity ([2]; GUA concentration 2 mM) of 25.09 units/mL, an AchE activity ([2]; GUA concentration 7 mM) of 20.54 units/mL and an AchE activity ([2]; GUA concentration 20 mM) of 10.56 units/mL.
